Article PMC10227015, “From a drug repositioning to a structure-based drug design approach to tackle acute lymphoblastic leukemia” (Nature Communications, 2023)
Where two headings read alike, the source gives them in different places.

Columns and labels:
CCRF-CEM cell line = experiment: dCK cellular assay: CCRF-CEM proliferation in the presence of dT and dC; format: cell-based, human
Procedure: The dCK cellular assay was set up to assess the ability to inhibit dCK activity in a cellular model. The model was developed with a T-cell acute lymphoblastic leukemia cell line (CCRF-CEM), because of its high dependence on the SP, thus on dCK activity. Cellular assays were performed to assess the inhibition of cell proliferation under two conditions: (i) in the presence of the compound alone to determine the nonspecific effect on cells, independent of dCK (nonspecific toxicity) and (ii) in the presence of an inhibitor of the DNP to determine the ability of compounds to inhibit dCK and decrease tumor proliferation (activity on dCK). The inhibitor of the DNP chosen for the experiments was thymidine (dT), a physiological inhibitor of ribonucleotide reductase which arrests cell proliferation in phase S. The dTTP produced via thymidine kinase from dT acts as a RNR inhibitor by an allosteric regulation of the R1 subunit. The addition of the nucleoside deoxycytidine (dC) in the medium allows the rescue of cell proliferation by passing only through the salvage pathway, mediated by dCK. dC needs to be added exogenously to mimic physiological concentrations because it is not present in the cell culture medium, on the contrary to mouse model, in which it is naturally present in the serum. Therefore, cell proliferation under these conditions (+dT +dC) is dCK dependent and it is possible to determine the IC50 of dCK inhibitors on the inhibition of cell proliferation. Results are expressed as % cell proliferation relative to the control with DMSO.
The amount of reduced dye formed by metabolically active cells was quantified by its fluorescence measured at 560 nm (excitation) and 590 nm (emission) in a microplate reader (CLARIOstar, BMG Labtech). A blank well without cells was used as a background control. Each experiment was performed at least three times (with technical triplicates) and data are presented as the mean ± SD.

dCK-C3S-S74E = experiment: Thermal shift assay (TSA); conditions: for ΔTm (º) (TSA): Figure 2a, mean; for THERMAL SHIFT ASSAY +Tm (°): mean ± SD
[1] = Homo sapiens, Figure 2a, CCRF-CEM cell line, mean, read-out: IC50 (nM) (Cell Prolif)
[2] = Homo sapiens, read-out: dCK CELLULAR ASSAY IC50 (nM), CCRF-CEM, 200 µM dT and 1 µM dC, read-out: dCK […] ASSAY IC50

Chain of dCK-C3S-S74E (P27707 whole entry S74E, form open): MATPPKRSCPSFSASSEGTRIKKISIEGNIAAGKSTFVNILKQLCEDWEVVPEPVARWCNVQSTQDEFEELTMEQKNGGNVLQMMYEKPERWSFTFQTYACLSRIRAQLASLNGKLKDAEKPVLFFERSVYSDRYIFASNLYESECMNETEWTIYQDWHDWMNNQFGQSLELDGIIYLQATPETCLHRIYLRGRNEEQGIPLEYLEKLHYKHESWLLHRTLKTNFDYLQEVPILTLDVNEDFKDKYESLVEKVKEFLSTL

Compound | IC50 (CCRF-CEM cell line; [1]) | ΔTm (º) (TSA) (dCK-C3S-S74E) | THERMAL SHIFT ASSAY +Tm (°) (dCK-C3S-S74E) | IC50 (CCRF-CEM cell line; Figure 2a, CCRF-CEM cell line, mean, read-out: IC50 (nM) (Cell Prolif)) | IC50 (CCRF-CEM cell line; [2])
CCCN(c1nc(-c2nc(N)cc(N)n2)cs1)c1cc(-c2ccc(S(=O)(=O)N3CCN(CC)CC3)cc2)ccc1C [OR0638] | 35 nM | 20.22 º | 20.2 ± 0.9 ° |  | 
CN1CCN(CCc2ccc(-c3ccc4c(c3)N(c3nc(-c5nccc(N)n5)cs3)CCCC4)cc2)CC1 [OR0402] |  |  | 19.2 ± 0.3 ° |  | 1760 ± 160 nM
Cc1ccc(-c2ccc(CCN3CCN(C)CC3)cc2)cc1N(CCC(C)C)c1nc(-c2nc(N)cc(N)n2)cs1 [OR0605] | 2220 nM | 18.67 º | 18.7 ± 0.6 ° |  | 
Cc1ccc(NC(=O)c2cnc(CN3CCN(C)CC3)nc2)cc1Nc1nc(-c2nccc(N)n2)cs1 [OR0125] |  |  | 10.3 ± 0.0 ° |  | 37700 ± 4380 nM
CCCN(c1nc(-c2nc(N)cc(N)n2)cs1)c1cc(-c2ccc(S(=O)(=O)N3CCN(C)CC3)cc2)cc(F)c1C [OR0633] | 140 nM | 17.25 º | 17.3 ± 0.1 ° |  | 
Cc1ccc(-c2ccc(CCN3CCN(C)CC3)cc2)cc1N(CC1CC1)c1nc(-c2nc(N)cc(N)n2)cs1 [OR0604] | 609 nM | 19.7 º | 19.7 ± 1.0 ° |  | 
CCCN(c1nc(-c2nc(N)cc(N)n2)cs1)c1cc(-c2ccc(NC(=O)N3CCN(C)CC3)nc2)ccc1C [OR0616] | 135 nM | 19.23 º | 19.2 ± 0.8 ° |  | 
Cc1ccc(-c2ccc(S(=O)(=O)N3CCN(C)CC3)cc2)cc1N(c1nc(-c2nc(N)cc(N)n2)cs1)C(C)C [OR0636] | 301 nM | 17.68 º | 17.7 ± 0.9 ° |  | 
CCCN(c1nc(-c2nc(N)cc(N)n2)cs1)c1cc(-c2cccnc2)ccc1C [OR0620] | 407 nM | 15.71 º | 15.7 ± 0.5 ° |  | 
CCCCN(c1nc(-c2nc(N)cc(N)n2)cs1)c1cc(-c2ccc(CCN3CCN(C)CC3)cc2)ccc1C [OR0606] | 552 nM | 19.85 º | 19.9 ± 0.5 ° |  | 
Cc1ccc(Oc2ccc(CN3CCN(C)CC3)cc2)cc1Nc1nc(-c2nccc(N)n2)cs1 [OR0143] |  |  | 13.2 ± 0.2 ° |  | 2790 ± 1740 nM

Second part, the compound after the results:

IC50 (CCRF-CEM cell line; [1]) | ΔTm (º) (TSA) (dCK-C3S-S74E) | THERMAL SHIFT ASSAY +Tm (°) (dCK-C3S-S74E) | IC50 (CCRF-CEM cell line; Figure 2a, CCRF-CEM cell line, mean, read-out: IC50 (nM) (Cell Prolif)) | IC50 (CCRF-CEM cell line; [2]) | Compound
 | 19.17 º |  | 7.3 nM |  | CCCN(c1nc(-c2nc(N)cc(N)n2)cs1)c1cc(-c2cnc(S(=O)(=O)N3CCN(C)CC3)cc2C)ccc1C [OR0652]
3670 nM | 18.22 º | 18.2 ± 0.9 ° |  |  | CCCN(c1nc(-c2nc(N)cc(N)n2)co1)c1cc(-c2ccc(S(=O)(=O)N3CCN(C)CC3)cc2)ccc1C [OR0640]
171 nM | 22.39 º | 22.4 ± 1.1 ° |  |  | CCCN(c1nc(-c2nc(N)cc(N)n2)cs1)c1cc(-c2ccc(S(=O)(=O)C3CCNCC3)cc2)ccc1C [OR0646]
11 nM | 21.06 º | 21.1 ± 1.6 ° |  | 10.9 ± 4.1 nM | CCCN(c1nc(-c2nc(N)cc(N)n2)cs1)c1cc(-c2c(F)cc(S(=O)(=O)N3CCN(C)CC3)cc2F)ccc1C [OR0647]
1530 nM | 20.83 º | 20.8 ± 1.2 ° |  | 1520 ± 178 nM | CCCN(c1nc(-c2nc(N)cc(N)n2)cs1)c1cc(-c2ccc(S(=O)(=O)NCCN)cc2)ccc1C [OR0651]
67.4 nM | 19.72 º | 19.7 ± 0.9 ° |  | 67 ± 22 nM | CCCN(c1nc(-c2nc(N)cc(N)n2)cs1)c1cc(-c2ccc(S(=O)(=O)N3CCN(C)CC3)cc2OC)ccc1C [OR0645]
45.7 nM | 20.22 º | 20.2 ± 0.9 ° |  | 46 ± 18 nM | CCCN(c1nc(-c2nc(N)cc(N)n2)cs1)c1cc(-c2ccc(S(=O)(=O)N3CCN(C)CC3)cc2F)ccc1C [OR0643]
